Where a name gives a salt, the structure may show the parent alone.
Experiments:
[1] = tested on: urinary risk of forming calcium kidney stones; test: Urinary risk of forming calcium kidney stones, study on 74 individuals with oxalocalcium kidney stones; type: in vivo, human; details: for drop of the risk of forming calcium stones: 15 days after treatment start, citrate 6.48 g/day, phytate 120 mg/day, individuals with oxalocalcium kidney stones
Experimental: These individuals have been divided into three groups: 19 individuals with kidney stones (Group I), 38 individuals with kidney stones (Group II) and 17 individuals with kidney stones (Group III). The urinary risk to form calcium kidney stones was evaluated for each individual before being subjected to any pharmacological treatment.
15 days after treatment starting, the urinary risk of forming calcium kidney stones was evaluated again for each individual.

[2] = cited from earlier work
[3] = Urinary excretion of phytate after dietary intake; type: in vivo

maximum urinary excretion as share of the total intake ([3]; diet supplemented with products rich in phytates)	intake above which the excreted amount in urine does not increase ([3]; urinary excretion, dose-dependent up to this intake)	Structure (SMILES)	drop of the risk of forming calcium stones [1] [%]	effect on bioavailability of oligoelements such as Zn(II) and Fe(III) ([2]; doses in which maximum excretions are produced)	toxicity ([2]; megadose of 8.8 g/day)	effect on urine pH ([1]; treatment of calcium kidney stones, compared with citrate)
–	–	O=C(O)CC(O)(CC(=O)O)C(=O)O [citrate, potassium citrate, reference compound]	52	–	–	–
1-5%	20.9 mg/kg of body weight	O=P(O)(O)O[C@H]1[C@H](OP(=O)(O)O)[C@@H](OP(=O)(O)O)[C@H](OP(=O)(O)O)[C@@H](OP(=O)(O)O)[C@H]1OP(=O)(O)O [phytate, inositol hexaphosphate]	50	do not affect the bioavailability	does not produce any toxicity	does not cause increases of the urine pH

— patent US20060141122A1 (Universitat De Les Illes Balears and Industrias Agricolas …, priority 1999, published 2006)
